Tests used:
[1] = tested on: HEK cells expressing αS-A53T-YFP; assay: Intracellular seed catalyzed aggregation in HEK cells, inclusion count; type: cell-based; conditions: 10 µM SK-129 added 8 h after αS seeds (0.125 µM)
Experimental: The HEK cells (200,000 cells/mL) were plated in an µ-slide eight-well plate (300 µL/well) and incubated at 37 °C and 5% CO2 (g), and allowed to adhere to the plate for 24 h in media (DMEM, 10% FBS, 1% pen/strep). […] The HEK cells were incubated with αS fibrils for 8 h followed by the addition of 10 µM SK-129 for 300 µL media in each well (0.3 µL of 10 mM stock solution in DMSO, total DMSO = 0.1% v,v). The eight-well plate was incubated for a total of 24 h. The eight-well plate after 24 h was used for both confocal imaging and for the cytotoxicity measurements using MTT assay (2 wells/condition, 300 µL/well). In each experiment, 2 wells were used for each condition, including control (only media and DMSO), fibrils, and fibrils+SK-129.
The HEK cells in the eight-well plate were treated with a Hoechst 33342 dye solution for 1 h by adding 3 µL to each well (from 1 mg/ml solution in 1x PBS buffer). The Hoechst 33342 solution was carefully mixed with media by pipetting up and down for a few times. […] The counting of inclusions was carried out for six different experiments and for each experiment, 100 cells were counted from at least four different locations from the eight-well plate. The cells were counted manually by counting the number of Hoechst 33342 dye-stained nuclei in the cells. The inclusions in the cells were counted manually at different locations in the eight-well plate. […]

Aβ42 = Aβ42 (Homo sapiens, UniProt P05067); assay: Fluorescence polarization titration, SK-129F with Aβ42; type: binding; conditions: FP, higher Kd for Aβ42
Chain of Aβ42 (P05067 672-713 limits assumed, species assumed): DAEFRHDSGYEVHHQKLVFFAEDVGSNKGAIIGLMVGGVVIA
Experimental: All Fluorescence Polarization (FP) experiments were conducted on a Varian Cary Eclipse fluorometer (Agilent, Santa Clara, CA) equipped with a polarizer. The stock solutions of αS, 1 mM or 100 μM in 1x PBS buffer, were serially added into a solution of 10 μM SK-129F (300 μL in 1x PBS buffer) while stirring in a quartz cuvette (Fireflysci, Staten Island, NY). All FP measurements were conducted in triplicates in 20 mM Tris, 100 mM NaCl, pH 7.2 at 20 °C. The excitation and emissions wavelengths were set at 490 nm and 520 nm, respectively. Each titration was equilibrated for five min before measurements were taken for the next addition of αS solution. The addition of αS solution was continuous until no more change in the FP signal was observed. Similar conditions were used for the titration of various αS mutants and Aβ42 peptide against SK-129F. A stock solution of Aβ42 (1 mM or 100 μM in 1x PBS buffer on ice) was sequentially added to a solution of 10 μM SK-129F (300 μL in 1x PBS buffer) until no more change in the FP signal was observed. The polarization of each point was calculated using Eq. 1:1 FP=I∥−I⊥/I∥+I⊥ Where I∥ is fluorescence intensity parallel to the excitation plane and I⊥ is fluorescence intensity perpendicular to the excitation plane. […]

NL5901 = assay: Motility (activity counts, WMicroTracker ARENA) of C elegans NL5901; type: in vivo; conditions: NL5901, 15 µM SK-129 at the larval stage
Experimental: The assay was carried out based on a previous protocol[57] with slight modifications. On day one, N2 and NL5901 strains were synchronized through the bleaching process involving egglay and the incubation of the eggs at an ambient temperature (~23 °C) on a solution of 3 mL NGM media in 60 mm culture plates (CytoOne, USA Scientific, Ocala, FL). The plates were seeded with 300 µL OP50 at an O.D. of 0.5 for 30 h. Simultaneously, a solution of 15 µM SK-129 (Stock solution concentration = 10 mM in DMSO) was made in M9 buffer and added to two sterilized 35 mm NGM solid media plates (Fisher Scientific, Pittsburgh, PA). The plates were already containing 2 mL of NGM solid media and 75 µM Fluorodeoxyuridine (FUDR) to prevent offspring in the worms. On day two, M9 buffer was used to transfer the worms from 60 mm NGM plates into 35 mm FUDR and SK-129 containing solid media plates (Fisher Scientific, Pittsburgh, PA) and incubated up to day three on these plates. On day four, liquid media was prepared according to the previous protocol[69] with some modifications. […] On day five, motility assay was conducted for worms under different conditions in duplicate using a WMicroTracker Arena plate reader (Phylumtech, Argentina) at ~23 °C for 1 h per day over a period of 12 days. […]

## COC(=O)c1cc(OCC(=O)O)c2cccc(NC(=O)c3cc(OC(C)C)c4cccc(NC(=O)c5cc(OCC(=O)O)c6cccc(NC(=O)c7cc(OC(C)C)c8cccc([N+](=O)[O-])c8n7)c6n5)c4n3)c2n1 [SK-129]
[1]; total 24 h, without SK-129 ~19
  number of inclusions: 1–2 inclusions/100 cells
[1]; up to 4 days
  number of inclusions: 2–3 inclusions/100 cells
Aβ42
  Kd for Aβ42 relative to αS: more than 15 fold
NL5901
  overall activity (motility): significant improvement in the overall activity
